Structures can show the parent of a compound that is named as a salt. Where two headings read alike, the source gives them in different places.
Legend:
Assay type in all cases: cell-based
[1] = tested on: human breast cancer cell line T-47D; experiment: Caspase cascade activation (DEVD-R110 fluorogenic substrate) in T-47D cells
Method in brief: (§1)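 Cells were exposed to compound at 0.016 to 10 μM final for 24 h or 48 h at 37 °C. They were then lysed with 14 μM N-(Ac-DEVD)-N′-ethoxycarbonyl-R110 in lysolecithin/DTT/PIPES buffer pH 7.2 for 3 h at room temperature (ex 485/em 530 nm). EC50 came from a sigmoidal fit of net RFU relative to untreated control.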

[2] = tested on: breast cancer cell line SKBR3; experiment: Caspase cascade activation in SKBR3 cells; settings: Homo sapiens, SK-BR-3, 48 h, read-out: Caspase Activation Potency EC50 SKBR3
[3] = tested on: human B cell lymphoblastoid cell line Ramos; experiment: Caspase cascade activation in Ramos cells; settings: 48 h, read-out: Caspase Activation Potency EC50 Ramos
[4] = tested on: human lymphoma cell line Raji; experiment: Caspase cascade activation in Raji cells; settings: 48 h, read-out: Caspase Activation Potency EC50 Raji
[5] = tested on: human Burkitt's lymphoma cell line Namalwa; experiment: Caspase cascade activation in Namalwa cells; settings: Burkitts lymphoma cell, 48 h, read-out: Caspase Activation Potency EC50 Namalwa
[6] = tested on: human hepatocellular carcinoma cell line SNU398; experiment: Caspase cascade activation in SNU398 cells; settings: read-out: Caspase activation Potency EC50 SNU398 (48 h)
Method in brief: as §1

[7] = tested on: human colon carcinoma cell line HCT116; experiment: Caspase cascade activation in HCT116 cells; settings: read-out: Caspase activation Potency EC50 HCT116 (48 h)
Method in brief: as §1

[8] = tested on: multi-drug resistant (MDR) human sarcoma cell line MES-SA/ADR; experiment: Inhibition of cell proliferation (GI50) in MES-SA/ADR cells; settings: Table IV, read-out: GI50 in Multi-Cancer Cells MES-SA/ADR
Procedure: (§2) Human breast cancer cell lines T-47D, MX-1 and MDAMB435, human colon cancer cell line HT29, and human lung cancer cell line H1299 were grown and harvested as in Example 75. An aliquot of […] of cells (4.4×10^4 cells/mL) was added to a well of a 96-well microtiter plate containing 5 μL of a 10% DMSO in RPMI-1640 media solution containing 10 nM to 100 μM of N-(2,5-dimethoxyphenyl)-2-methylthieno[3,2-d]pyrimidin-4-amine (1 nM to 10 μM final). An aliquot of 45 μL of cells was added to a well of a 96-well microtiter plate containing 5 μL of a 10% DMSO in RPMI-1640 media solution without compound as the control sample for maximal cell proliferation (Lmax). The samples were mixed by agitation and then incubated at 37° C. for 48 h in a 5% CO2-95% humidity incubator. After incubation, the samples were removed from the incubator and 25 μL of CellTiter-Glo™ reagent (Promega) was added. The samples were mixed by agitation and incubated at room temperature for 10-15 min. Plates were then read using a luminescent plate reader (Model SPECTRAfluor Plus, Tecan) to give Ltest values.
(§3) Baseline for GI50 (dose for 50% inhibition of cell proliferation) of initial cell numbers was determined by adding an aliquot of 45 μL of cells or 45 μL of media, respectively, to wells of a 96-well microtiter plate containing 5 μL of a 10% DMSO in RPMI-1640 media solution. The samples were mixed by agitation and then incubated at 37° C. for 0.5 h in a 5% CO2-95% humidity incubator. After incubation, the samples were removed from the incubator and 25 μL of CellTiter-Glo™ reagent (Promega) was added. The samples were mixed by agitation and incubated at 37° C. for 10-15 min at room temperature in a 5% CO2-95% humidity incubator. Fluorescence was read as above, (LStart) defining luminescence for initial cell number used as baseline in GI50 determinations.
(§4) GI50 (dose for 50% inhibition of cell proliferation) is the concentration where [(LTest−Lstart)/(LMax−Lstart)]=0.5.
(§5) Several compounds were tested in multi cancer cell lines, including human breast cancer cell lines T-47D, MX-1, SKBR3 and MDAMB435, human hepatocellular carcinoma cell line SNU398, human colon carcinoma cell line HCT116, human sarcoma cell line MES-SA and multi-drug resistant (MDR) human sarcoma cell line MES-SA/ADR, murine leukemia cell line P388 and multi-drug resistant (MDR) murine leukemia cell line P388ADR, and the data are summarized in Table IV.

[9] = tested on: human sarcoma cell line MES-SA; experiment: Inhibition of cell proliferation (GI50) in MES-SA cells; settings: Table IV, read-out: GI50 in Multi-Cancer Cells MES-SA
Procedure: as §2, §3, §4, §5

[10] = tested on: human breast cancer cell line MDAMB435; experiment: Inhibition of cell proliferation (GI50) in MDAMB435 cells
Procedure: as §2, §3, §4

[11] = tested on: human colon carcinoma cell line HCT116; experiment: Inhibition of cell proliferation (GI50) in HCT116 cells; settings: HCT-116, Table IV, read-out: GI50 in Multi-Cancer Cells HCT116
Procedure: as §2, §3, §4, §5

[12] = tested on: human breast cancer cell line T-47D; experiment: Inhibition of cell proliferation (GI50, CellTiter-Glo) in T-47D cells; settings: T47D cells
Procedure: as §2, §3, §4

[13] = tested on: human breast cancer cell line MX-1; experiment: Inhibition of cell proliferation (GI50) in MX-1 cells; settings: MX1 cells
Procedure: as §2, §3, §4

[14] = tested on: human hepatocellular carcinoma cell line SNU398; experiment: Inhibition of cell proliferation (GI50) in SNU398 cells; settings: SNU-398, Table IV, read-out: GI50 in Multi-Cancer Cells SNU398
Procedure: as §2, §3, §4, §5

[15] = tested on: murine leukemia cell line P388; experiment: Inhibition of cell proliferation (GI50) in P388 cells; settings: Mus musculus, Table IV, read-out: GI50 in Multi-Cancer Cells P388
Procedure: as §2, §3, §4, §5

[16] = tested on: multi-drug resistant (MDR) murine leukemia cell line P388ADR; experiment: Inhibition of cell proliferation (GI50) in P388/ADR cells; settings: Mus musculus, Table IV, read-out: GI50 in Multi-Cancer Cells P388/ADR
Procedure: as §2, §3, §4, §5

[17] = tested on: human breast cancer cell line SKBR3; experiment: Inhibition of cell proliferation (GI50) in SKBR3 cells; settings: SK-BR-3, Table IV, read-out: GI50 in Multi-Cancer Cells SKBR3
Procedure: as §2, §3, §4, §5

[18] = tested on: human lung cancer cell line H1299; experiment: Inhibition of cell proliferation (GI50) in H1299 cells; settings: NCI-H1299, Table III, 48 h
Procedure: as §2, §3, §4

[19] = tested on: human colon cancer cell line HT29; experiment: Inhibition of cell proliferation (GI50) in HT29 cells; settings: HT-29, Table III, 48 h
Procedure: as §2, §3, §4

[20] = tested on: human lung cancer cell line H1299; experiment: Caspase cascade activation in H1299 cells; settings: NCI-H1299, 24 h, read-out: Caspase activation Potency EC50 H1299 (24 h)
Method in brief: as §1

[21] = Homo sapiens, T47D, 24 h, T47D cells, 24 h, read-out: Caspase activation Potency EC50 T47D (24 h)
[22] = Homo sapiens, T47D, 48 h, T-47D cells, 48 h, read-out: Caspase activation Potency EC50 T-47D (48 h)
[23] = MDA-MB-435, Table IV, read-out: GI50 in Multi-Cancer Cells MDAMB435
[24] = Table IV, read-out: GI50 in Multi-Cancer Cells T47D
[25] = Table IV, read-out: GI50 in Multi-Cancer Cells MX1
[26] = MDA-MB-435, Table III, 48 h, read-out: GI50 in Cancer Cells MDAMB435
[27] = Table III, 48 h, read-out: GI50 in Cancer Cells T47D
[28] = Table III, 48 h, read-out: GI50 in Cancer Cells MX1

Row | Compound | EC50 [1, 21] | EC50 [1, 22] | GI50 [8] | GI50 [9] | GI50 [10, 23] | GI50 [11] | GI50 [12, 24] | GI50 [13, 25] | GI50 [14] | GI50 [15] | EC50 ([6]; Homo sapiens, SNU-398, 48 h) | EC50 ([7]; Homo sapiens, HCT-116, 48 h) | GI50 [16] | GI50 [17] | GI50 [10, 26] | GI50 [12, 27] | GI50 [13, 28] | GI50 [18] | GI50 [19] | EC50 [20] | also measured
1 | COc1cc(Nc2ncnc3ccsc23)cc(N(C)C)c1 [Example 70, N-(3-Dimethylamino-5-methoxyphenyl)thieno[3,2-d]pyrimidin-4-amine hydrochloride] |  |  |  |  |  |  |  |  |  |  |  |  |  |  |  |  |  |  |  |  | EC50 ([1]; T-47D cells, 48 h, hydrochloride, read-out: Caspase activation Potency EC50 T-47D (48 h)): 241 nM; EC50 [2]: 153 nM; EC50 [3]: 173 nM; EC50 [4]: 399 nM; EC50 [5]: 204 nM; EC50 ([6]; 48 h, hydrochloride): 238 nM; EC50 ([7]; 48 h, hydrochloride): 433 nM
2 | COc1cc(Nc2nc(C)nc3ccsc23)cc(OC)c1 [Example 54, N-(3,5-Dimethoxyphenyl)-2-methylthieno[3,2-d]pyrimidin-4-amine] | 27 nM | 30 nM | 2000 nM | 788 nM | 121 nM | 6580 nM | 40 nM | 100 nM | 1070 nM | 1050 nM | 256 nM | 61 nM | 1100 nM |  |  |  |  |  |  |  | 
3 | COc1cc(Nc2ncnc3ccsc23)cc(-n2cnnn2)c1 [Example 61, N-(3-Methoxy-5-(1H-tetrazol-1-yl)phenyl)thieno[3,2-d]pyrimidin-4-amine] | 355 nM | 287 nM | 767 nM | 836 nM | 61 nM | 400 nM | 398 nM | 791 nM | 299 nM | 280 nM | 138 nM | 291 nM | 199 nM | 600 nM |  |  |  |  |  |  | 
4 | COc1ccc(OC)c(Nc2ncnc3sccc23)c1 [Example 5, N-(2,5-Dimethoxyphenyl)thieno[2,3-d]pyrimidin-4-amine hydrochloride] | 147 nM | 296 nM |  |  |  |  |  |  |  |  | > 10000 nM | > 10000 nM |  |  | > 10000 nM | 200 nM | 300 nM | > 10000 nM | > 10000 nM | > 10000 nM | 
5 | COc1ccc(OC)c(Nc2nc(C)nc3ccsc23)c1 [Example 1, N-(2,5-Dimethoxyphenyl)-2-methylthieno[3,2-d]pyrimidin-4-amine] | 65 nM | 40 nM |  |  |  |  |  |  |  |  | 557 nM | 2330 nM |  |  | 295 nM | 80 nM | 300 nM | 1170 nM | 3550 nM | 1550 nM | 
6 | COc1cc(N=[N+]=[N-])cc(Nc2ncnc3ccsc23)c1 [Example 71, N-(3-Azido-5-methoxyphenyl)thieno[3,2-d]pyrimidin-4-amine] |  | 209 nM | 796 nM | 385 nM | 92 nM | 300 nM | 208 nM | 1670 nM | 305 nM | 218 nM | 262 nM | 144 nM | 157 nM | 200 nM |  |  |  |  |  |  | 
7 | COc1cc(Nc2ncnc3ccsc23)cc(N(C)C)c1 [Example 69, N-(3-Dimethylamino-5-methoxyphenyl)thieno[3,2-d]pyrimidin-4-amine] |  | 191 nM | 520 nM | 600 nM | 41 nM | 300 nM | 133 nM | 9850 nM | 276 nM | 381 nM | 251 nM | 323 nM | 249 nM | 100 nM |  |  |  |  |  |  | 
8 | COc1ccc(OC)c(Nc2ncnc3scc(C)c23)c1 [Example 6, N-(2,5-Dimethoxyphenyl)-5-methylthieno[2,3-d]pyrimidin-4-amine hydrochloride] | > 10000 nM | > 10000 nM |  |  |  |  |  |  |  |  | > 10000 nM | > 10000 nM |  |  | > 10000 nM | > 10000 nM | > 10000 nM | > 10000 nM | > 10000 nM | > 10000 nM | 

— patent publication US20070099877A1, “N-aryl-thienopyrimidin-4-amines and analogs as activators of caspases and inducers of apoptosis and the use thereof” (Cytovia, Inc., priority 2005, published 2007)
